Read-outs that look alike come from different tables or passages of the source. One block for each molecule: values may come before it.
Key:
rat hepatocytes = assay: Inhibition of Gluconeogenesis in Rat Hepatocytes; format: cell-based; conditions: isolated rat hepatocytes, 10 mM lactate, 1 mM pyruvate, 1 hour, read-out: IC50 Glucose Production
Experimental: Hepatocytes (75 mg wet weight/ml) were incubated in 1 ml Krebs-bicarbonate buffer containing 10 mM Lactate, 1 mM pyruvate, 1 mg/ml BSA, and test compound concentrations from 1 to 500 μM. […] After 1 hour, an aliquot (0.25 ml) was removed, transferred to an Eppendorf tube and centrifuged. 50 μl of supernatant was then assayed for glucose content using a Sigma Glucose Oxidase kit as per the manufacturer's instructions.

rat liver FBPase = molecular target: T1, rat liver FBPase (Rattus norvegicus, UniProt P19112); assay: Inhibition of Rat Liver FBPase; format: biochemical; conditions: read-out: IC50 (rlFBPase)
T1 construct: made in house; host or cells: E. coli BL21
T1 sequence (P19112 2-363 limits assumed): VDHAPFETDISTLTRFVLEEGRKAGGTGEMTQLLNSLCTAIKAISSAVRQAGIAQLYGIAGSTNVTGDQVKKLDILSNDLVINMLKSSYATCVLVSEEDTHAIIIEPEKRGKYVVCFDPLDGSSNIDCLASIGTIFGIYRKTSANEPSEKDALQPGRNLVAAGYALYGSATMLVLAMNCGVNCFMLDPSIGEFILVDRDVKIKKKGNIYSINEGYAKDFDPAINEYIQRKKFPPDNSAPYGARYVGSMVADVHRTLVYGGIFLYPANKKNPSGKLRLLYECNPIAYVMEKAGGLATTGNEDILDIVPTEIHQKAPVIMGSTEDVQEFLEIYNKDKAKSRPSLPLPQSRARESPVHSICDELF
Experimental: E. coli strain BL21 transformed with a human liver FBPase-encoding plasmid was obtained from Dr. M. R. El-Maghrabi at the State University of New York at Stony Brook. The enzyme was typically purified from 10 liters of recombinant E. coli culture as described (M. Gidh-Jain et al., 1994, The Journal of Biological Chemistry 269, pp 27732-27738). Enzymatic activity was measured spectrophotometrically in reactions that coupled the formation of product (fructose 6-phosphate) to the reduction of dimethylthiazoldiphenyltetrazolium bromide (MTT) via NADP^+ and phenazine methosulfate (PMS), using phosphoglucose isomerase and glucose 6-phosphate dehydrogenase as the coupling enzymes. Reaction mixtures (200 μl) were made up in 96-well microtitre plates, and consisted of 50 mM Tris-HCl, pH 7.4, 100 mM KCl, 5 mM EGTA, 2 mM MgCl2, 0.2 mM NADP, 1 mg/ml BSA, 1 mM MTT, 0.6 mM PMS, 1 unit/ml phosphoglucose isomerase, 2 units/ml glucose 6-phosphate dehydrogenase, and 0.150 mM substrate (fructose 1,6-bisphosphate). Inhibitor concentrations were varied from 0.01 μM to 10 μM. Reactions were started by the addition of 0.002 units of pure hlFBPase, and were monitored for 7 minutes at 590 nm in a Molecular Devices Plate Reader (37° C.).
E. coli strain BL21 transformed with a rat liver FBPase-encoding plasmid was obtained from Dr. M. R. El-Maghrabi at the State University of New York at Stony Brook. Recombinant FBPase was purified as described (El-Maghrabi, M. R., and Pilkis, S. J. (1991) BioChem. Biophys. Res. Commun. 176, 137-144) The enzyme assay was identical to that described above for human liver FBPase.

human liver FBPase = molecular target: T2, human liver FBPase (Homo sapiens, UniProt P09467); assay: Inhibition of Human Liver FBPase; format: biochemical; conditions: read-out: IC50 (hlFBPase)
T2 construct: made in house; host or cells: E. coli BL21
T2 sequence (P09467 2-338 limits assumed): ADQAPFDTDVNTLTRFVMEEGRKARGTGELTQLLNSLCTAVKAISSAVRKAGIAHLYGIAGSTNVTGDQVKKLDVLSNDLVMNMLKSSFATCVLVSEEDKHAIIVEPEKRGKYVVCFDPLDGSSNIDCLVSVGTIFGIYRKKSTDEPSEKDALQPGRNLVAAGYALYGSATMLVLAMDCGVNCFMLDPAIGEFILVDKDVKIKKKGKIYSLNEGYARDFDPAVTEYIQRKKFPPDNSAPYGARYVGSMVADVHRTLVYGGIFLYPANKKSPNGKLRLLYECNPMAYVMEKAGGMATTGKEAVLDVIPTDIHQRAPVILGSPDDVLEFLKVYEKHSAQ
Experimental: […] […] Enzymatic activity was measured spectrophotometrically in reactions that coupled the formation of product (fructose 6-phosphate) to the reduction of dimethylthiazoldiphenyltetrazolium bromide (MTT) via NADP^+ and phenazine methosulfate (PMS), using phosphoglucose isomerase and glucose 6-phosphate dehydrogenase as the coupling enzymes. […] Inhibitor concentrations were varied from 0.01 μM to 10 μM. Reactions were started by the addition of 0.002 units of pure hlFBPase, and were monitored for 7 minutes at 590 nm in a Molecular Devices Plate Reader (37° C.).

[1] = tested on: Zucker Diabetic Fatty (ZDF rat); assay: Acute Oral Efficacy in the ZDF Rat; format: in vivo; conditions: for Blood Glucose, T6h: 6 h after 60 mg/kg oral; for Blood Glucose, % Change: baseline to 6 h, 60 mg/kg oral; for Blood Glucose, Tbaseline: baseline, 60 mg/kg oral group
Experimental: Methods: ZDF rats were purchased from Genetics Inc (Indianapolis, Ind.) at 8 weeks of age. Animals were maintained under standard vivarium conditions and provided with Purina 5008 chow and water ad libitum. At 10-12 weeks of age, rats with blood glucose levels>500 mg/dl were selected and dosed orally either with vehicle (PEG 400), or prodrug (60 mg/kg). Blood glucose levels were monitored at regular intervals for 6 hours following dosing. Blood samples were taken from tail vein nicks and analyzed by means of a HemoCue glucose analyzer (Hemocue, Mission Viejo, Calif.). Statistical analysis was performed using the Student's t test. Means±standard error of the means are shown.

[2] = tested on: Human Liver Phosphoramidase; assay: Structure Activity Relationship of Human Liver Phosphoramidase (human liver homogenate); format: in vitro ADME; conditions: pH 7.4
Experimental: Human liver, purchased from the Anatomic Gift Foundation (Laurel, Md.), was homogenized in Krebs-bicarbonate buffer and clarified by a slow-speed centrifugation. Prodrug metabolism was evaluated in reaction mixtures containing human liver homogenate (4 mgs protein), 50 mM Tris-HCl, pH 7.4, 10 mM MgCl2, and 10 mM dithiothreitol. At various time intervals over the course of 2 hours, aliquots were removed from the reaction mixtures and deproteinated by addition of methanol to 60%. Following clarification by centrifugation, metabolites were analyzed by reverse phase HPLC with use of a Beckman Ultrasphere ODS column (4.6×150 mm) equipped with an Alltech All-Guard column. The column was equilibrated with 20 mM potassium phosphate, pH 6.2 and eluted with a linear gradient of 0-60% acetonitrile over 20 minutes at a flow rate of 1.5 mL/min and at a temperature of 40° C. UV absorbance was monitored at 300 nm. Most of the prodrugs evaluated were metabolized via a non-rate limiting, esterase-catalyzed step to their monophosphoramidate form within 5 minutes of incubation. The rate of phosphonic acid appearance was therefore essentially a reflection of the rate of the final […] cleavage step. Results for representative prodrugs for which the esterase-catalyzed step was non-rate limiting are shown below: […]

Structure (SMILES): CCCc1oc(N)nc1-c1ccc(P(=O)(O)O)o1 [Compound 10.2, 2-Amino-5-propyl-4-[2-(5-phosphono)furanyl]oxazole]
IC50 (rat hepatocytes; Hepatocyte): 16000 nM
IC50 (rat liver FBPase): 2500 nM

Structure (SMILES): CC(C)Cc1sc(N)nc1-c1ccc(P(=O)(N[C@@H](C)C(=O)OCc2ccccc2)N[C@@H](C)C(=O)OCc2ccccc2)o1 [Compound 50.2, 2-Amino-5-isobutyl-4-[2-(5-N,N-bis(L-alanine acid dibenzyl ester)phosphonoamido)furanyl]thiazole]
IC50 (rat hepatocytes): 2100 nM
Blood Glucose, T6h [1]: 415 ± 15 mg/dL
Blood Glucose, % Change [1]: −30%
Blood Glucose, Tbaseline [1]: 591 ± 35 mg/dL

Structure (SMILES): CCOC(=O)C(C)(C)NP(=O)(NC(C)(C)C(=O)OCC)c1ccc(-c2nc(N)sc2CC(C)C)o1 [Compound 50.9]
IC50 (rat hepatocytes): 2200 nM
Blood Glucose, T6h [1]: 410 ± 18 mg/dL
Blood Glucose, % Change [1]: −32%
Blood Glucose, Tbaseline [1]: 602 ± 26 mg/dL

Structure (SMILES): CCCSc1sc(N)nc1-c1ccc(P(=O)(NC(C)C(=O)OC(C)C)NC(C)C(=O)OC(C)C)o1 (stereo not drawn) [Compound 50.20, 2-Amino-5-propylthio-4-{2-[5-(N,N′-(1-methyl-ethoxycarbonyl)ethyl)phosphonamido]furanyl}thiazole]
Phosphoramidase Activity (Rate of 3.1 or 3.58 production, nmoles/mn/mg liver protein) [2]: 0.085 nmoles/mn/mg liver protein

Structure (SMILES): CCCSc1sc(N)nc1-c1ccc(P(=O)(N[C@@H](COC(C)(C)C)C(=O)OC)N[C@@H](COC(C)(C)C)C(=O)OC)o1 [Compound 52.8, 2-Amino-5-propylthio-4-{2-[5-(N,N′-bis(S)-1-methoxycarbonyl-2-(t-butoxy)ethyl)phosphonamido]furanyl}thiazole]
Phosphoramidase Activity (Rate of 3.1 or 3.58 production, nmoles/mn/mg liver protein) [2]: 0.025 nmoles/mn/mg liver protein

Further lines, with some results ahead:

IC50 (rat liver FBPase): 2500 nM
Structure (SMILES): Cc1nc(-c2ccc(P(=O)(O)O)o2)c(CC(C)C)s1 [Compound 3.2, 2-Methyl-5-isobutyl-4-[2-(5-phosphono)furanyl]thiazole]
IC50 (rat hepatocytes; Hepatocyte): 26000 nM

melting point: 258 to 259 °C
IC50 (human liver FBPase): 60 nM
IC50 (rat liver FBPase): 1800 nM
Structure (SMILES): CCCc1cnc(N)nc1-c1ccc(P(=O)(O)O)o1 [Compound 16.1, 2-amino-5-propyl-4-[2-(5-phosphono)furanyl]pyrimidine]
IC50 (rat hepatocytes; Hepatocyte): 10000 nM

Phosphoramidase Activity (Rate of 3.1 or 3.58 production, nmoles/mn/mg liver protein) [2]: 0.019 nmoles/mn/mg liver protein
Structure (SMILES): CCOC(=O)CNP(=O)(NCC(=O)OCC)c1ccc(-c2nc(N)sc2CC(C)C)o1 [Compound 50.8]

Phosphoramidase Activity (Rate of 3.1 or 3.58 production, nmoles/mn/mg liver protein) [2]: 0.005 nmoles/mn/mg liver protein
Structure (SMILES): CCOC(=O)CN(C)P(=O)(c1ccc(-c2nc(N)sc2CC(C)C)o1)N(C)CC(=O)OCC [Compound 50.10, 2-Amino-5-isobutyl-4-{2-[5-(N,N′-bis(ethoxycarbonylmethyl)-N,N′-dimethylphosphonamido)]furanyl}thiazole]

Phosphoramidase Activity (Rate of 3.1 or 3.58 production, nmoles/mn/mg liver protein) [2]: 0.022 nmoles/mn/mg liver protein
Structure (SMILES): COC(=O)[C@H](CC(C)C)NP(=O)(N[C@@H](CC(C)C)C(=O)OC)c1ccc(-c2nc(N)sc2CC(C)C)o1 [Compound 50.12, 2-Amino-5-isobutyl-4-{2-[5-(N,N′-bis((S)-1-methoxycarbonyl-3-methyl)butyl)phosphonamido]furanyl}thiazole]

Phosphoramidase Activity (Rate of 3.1 or 3.58 production, nmoles/mn/mg liver protein) [2]: 0.029 nmoles/mn/mg liver protein
Structure (SMILES): CCOC(=O)[C@H](Cc1ccccc1)NP(=O)(N[C@@H](Cc1ccccc1)C(=O)OCC)c1ccc(-c2nc(N)sc2CC(C)C)o1 [Compound 50.19, 2-Amino-5-isobutyl-4-{2-[5-(N,N′-bis((S)-1-ethoxycarbonyl-2-phenyl)ethyl)phosphonamido]furanyl}thiazole]

Phosphoramidase Activity (Rate of 3.1 or 3.58 production, nmoles/mn/mg liver protein) [2]: 0.032 nmoles/mn/mg liver protein
Structure (SMILES): CCCSc1sc(N)nc1-c1ccc(P(=O)(NC2(C(=O)OCC)CCCC2)NC2(C(=O)OCC)CCCC2)o1 [Compound 52.12, 2-Amino-propylthio-4-[2-{5-(N,N′-bis(1-ethoxycarbonyl)cyclopentyl)phosphonamido}furanyl]thiazole]

Phosphoramidase Activity (Rate of 3.1 or 3.58 production, nmoles/mn/mg liver protein) [2]: 0.033 nmoles/mn/mg liver protein
Structure (SMILES): CCCSc1sc(N)nc1-c1ccc(P(=O)(N[C@@H](CCC)C(=O)OCC)N[C@@H](CCC)C(=O)OCC)o1 [Compound 52.16]

— patent US6965033B2, “Bisamidate phosphonate prodrugs” (Metabasis Therapeutics, Inc., priority 1999, dated 2005)
